{"source": "patent US9662329B2", "about": "“Use of survivin antagonists in polyomavirus-related disease” (University of Pittsburgh—Of the Commonwealth System of …, priority 2012, dated 2017)", "key": {"[1]": {"test_system": "MCV-negative MCC cell line", "assay": "Cell-Titer Glo growth inhibition by YM155", "format": "cell-based, human", "conditions": "MCV-negative vs MCV-positive MCC cells", "protocol": "Serial drug dilutions from 10^−4 M to 10^−9 M were used on MCC and non-MCC cell lines. Cells were seeded into 384-well plates at 6000 cells in 50 μl of medium per well. After 24 hours, 25 μl of 3× drugs were added at increasing concentration to each well. Cell viability was then measured using Cell Titer Glo (Promega) kit following manufacturer's instructions as described previously. Each drug concentration was tested in triplicate for each cell line and experiments were repeated twice. EC50 doses for the drugs were calculated using a four parameter logistic equation (GraphPad Prism)."}, "MKL-1 cells [2]": {"test_system": "MKL-1 cells", "assay": "Trypan blue dye exclusion assay", "conditions": "for viability at 0.1 µM: Homo sapiens", "protocol": "Cells were equally seeded and treated with YM155 for 48 hours. To count blue stained dead cells, cells were treated with Accutase (Millipore), collected, resuspended in PBS, mixed with equal volume of Trypan blue (Lonza, 0.4%) and counted using a hemocytometer under the microscope. The counts were done in triplicate and the experiment was repeated three times.\nMKL-1 cells were co-stained with CFDA (green, live) and PI (red, dead). In FIG. 4D, column graphs represent mean and range quantitations (using ImageJ) of % CFDA positive and % PI positive cells."}, "MKL-1 cells [3]": {"test_system": "MKL-1 cells", "assay": "Immunoblotting for cPARP, cCaspase 3 and LC3", "format": "cell-based, human", "conditions": "100 nM, 48 hours"}, "MKL-1 cells [4]": {"test_system": "MKL-1 cells", "assay": "Cell cycle analysis (PI and BrdU staining)", "format": "cell-based, human", "conditions": "12 h, YM155 100 nM, camptothecin 1 μM", "protocol": "MKL-1 cells were treated with Accutase (Millipore) to break clumps and then resuspended in fresh medium containing drug and treated for 12 hours. Three hours before harvest 10 μM Bromodeoxyuridine (BrdU) was added. Cells were then harvested and fixed in chilled 70% ethanol and left overnight. The next day cells were washed, resuspended in 200 μl of 2M HCl/Triton X (1%) and incubated for 30 mins at room temperature. Cells were then centrifuged at 2000 rpm for 10 mins and neutralized in 200 μl of 0.1M sodium tetraborate, pH 8.5 solution. Cells were then washed, suspended in 20 μl of PBS containing 0.5% tween20, 1% donkey serum and 2ul of anti-BrdU antibody (1:10 diution, BD Biosciences) and incubated overnight at 4° C. Cells were then washed and incubated with secondary antibody-anti mouse Alexa488 (1:1000) for 1 hour at room temperature. Cells were finally washed, suspended in PBS containing 100 μg/ml of RNase A, 50 μg/ml of PI (propidium iodide) and 0.05% Triton X and incubated for 30 mins at 37° C. in the dark. The cells were then subjected to FACS using the accuri C6 flow cytometer (UPCI shared resources)."}, "[5]": {"test_system": "human MKL-1 MCC xenografts", "protocol": "Compounds were dissolved in sterile 0.9% saline solution for administration to animals.\nSix-week-old female triple immune-deficient NSG (Nod-SCID gamma) mice (Jackson Laboratory) were maintained in a specific pathogen-free environment.\nMCC cells were checked for viability >90% by trypan blue staining, resuspended in PBS (2×10^7 cells in 100 μl) and inoculated subcutaneously into the right flank of mice.\nAll treatments were delivered for three consecutive weeks. […] YM-155 (2 mg/kg) was given intraperitoneally on five consecutive days, followed by a two-day treatment free interval.\nTwo-tailed paired Student's t test was used to analyze statistical differences in qRT-PCR results. Mouse survival curves were estimated using the Kaplan-Meier product-limit method and were compared using the log-rank test (GraphPad Software, La Jolla, Calif.). A piecewise linear hierarchical Bayesian model (Zhao et al., Bayesian hierarchical changepoint methods in modeling the tumor growth profiles in xenograft experiments. Clinical Cancer Res 17, 1057 (Mar. 1, 2011)) was used to characterize differences in tumor volumes and growth between treatments.\nCells of Merkel cell polyomavirus (+) carcinoma cell lines MKL-1, MS-1, WaGa, and MKL-2 were checked for viability >90% by trypan blue staining, resuspended in PBS (2×10^7 cells in 100 μl) and inoculated subcutaneously into the right flank of mice.\nYM-155 was given intraperitoneally on five consecutive days, followed by a two-day treatment free interval. For YM155 this treatment continued for three weeks or until mice were euthanized. Mice were euthanized upon showing a tumor having a diameter of 20 mm, or upon a showing of significant distress (>20% weight loss or when they became moribund). Caliper measurements of the longest perpendicular tumor diameters were performed every other day and tumor volumes were calculated using the formula: (width)^2×(length/2). Survival was defined as time from the first day of treatment until death/sacrifice."}, "survivin": {"test_system": "survivin", "assay": "qRT-PCR for survivin in xenograft tumor tissues", "format": "in vivo, mice", "conditions": "2 mg/kg vs saline", "quoted_text": "Column represents mean and error bars represent standard deviation. Experiment was done in triplicate (Mean±SEM).\nRNA was extracted from cell lysates using Trizol reagent (Invitrogen) and cDNA was synthesized using SuperScript III First Strand Synthesis (Invitrogen). Quantitative real-time PCR for survivin was performed on cDNA using the SYBR green method (based on manufacturer's protocol, Applied Biosystems). […] The relative change in expression was calculated using the Pffal method (Pfaffl, A new mathematical model for relative quantification in real-time RT-PCR. Nucleic Acids Research 29, e45 (May 1, 2001)). Experiments were repeated six times (2 biological repeats with 3 technical replicates each)."}, "[6]": {"conditions": "three weeks treatment, bortezomib 1 mg/kg twice weekly, YM155 2 mg/kg 5 times weekly"}}, "note": "Where two headings read alike, the source gives them in different places.", "data": [{"smiles": "COCCn1c2c([n+](Cc3cnccn3)c1C)C(=O)c1ccccc1C2=O.[Br-]", "note": "[YM155, 1-(2-methoxyethyl)-2-methyl-4,9-dioxo-3-(pyrazin-2-ylmethyl)-4,9-dihydro-1H-naphtho[2,3-d]imidazol-3-ium bromide]", "values": [{"measurement": "concentrations inhibiting MCV-negative MCC cell line growth, higher than for MCV-positive MCC cells", "setting": "[1]", "value": "1-2 orders of magnitude"}, {"measurement": "cell killing, trypan blue vital dye exclusion", "setting": "MKL-1 cells [2]; 48 h, MKL-1", "value": "dose-dependent cell killing"}, {"measurement": "viability at 0.1 µM", "setting": "MKL-1 cells [2]; MKL-1, read-out: cells remaining viable at 48 hours, 100 nM for 3 hours, followed by wash out", "value": 51, "unit": "%"}, {"measurement": "viability at 0.1 µM", "setting": "MKL-1 cells [2]; MKL-1, read-out: cells remaining viable at 48 hours, 100 nM for 6 hours, followed by wash out", "value": 3, "unit": "%"}, {"measurement": "viability at 0.1 µM", "setting": "MKL-1 cells [2]; MKL-1, read-out: cells remaining viable at 48 hours, 100 nM for 12 hours, followed by wash out", "value": 1.8, "unit": "%"}, {"measurement": "LC3-II accumulation (marker for cell autophagy)", "setting": "MKL-1 cells [3]", "value": "did not initiate LC3-II accumulation"}, {"measurement": "apoptosis measured by caspase 3 and PARP cleavage", "setting": "MKL-1 cells [3]", "value": "No evidence of apoptosis"}, {"measurement": "BrdU incorporation", "setting": "MKL-1 cells [4]", "value": "ablates BrdU incorporation in all phases of the cell cycle"}, {"measurement": "survival after initiation of treatment", "setting": "[5]; Example 2, 2 mg/kg for three weeks", "value": "almost two months"}, {"measurement": "survival after treatment began", "setting": "[5]; Example 2, continuously at 4 mg/kg", "value": "more than three months"}, {"measurement": "tumor growth after treatment was stopped", "setting": "[5]; after single 3-week course, 2 mg/kg", "value": "all tumors resumed growth once YM155 was stopped"}, {"measurement": "tolerability / adverse effects in mice", "setting": "[5]; bortezomib 1 mg/kg twice weekly, YM155 2 mg/kg 5 times weekly", "value": "well-tolerated and no adverse effects or acute toxicities were noted"}, {"measurement": "mice dying during treatment (up to day 19)", "setting": "[5]; [6]", "value": "none"}, {"measurement": "xenograft tumor growth / progression during treatment", "setting": "[5]; [6]", "value": "markedly delayed MKL-1 xenograft growth"}, {"measurement": "survivin levels in xenograft tumors (qRT-PCR)", "setting": "survivin", "value": "Lower survivin levels"}]}]}
